For 5 compounds, IC50 results are on record in patent publication US5861404A, “2,9-disubstituted purin-6-ones” (Bayer Aktiengesellschaft, priority 1995, dated 1999).

Assay type in all cases: biochemical
Test [1] concerns Ca-calmodulin-stimulatable PDE I. Kind of test: Inhibition of the phosphodiesterases in vitro: PDE I. The conditions noted are these: PDE I from porcine aorta or porcine brain; nucleotide 10^-6 mol/l; 1 μM CaCl2, 0.1 μM calmodulin; pH 7.5, 30 minutes. The protocol:
(§1) The cGMP-stimulatable PDE II, the cGMP-inhibitable PDE III and the cAMP-specific PDE IV were isolated from either porcine or bovine myocardium. The Ca-calmodulin-stimulatable PDE I was isolated from the porcine aorta or porcine brain. The cGMP-specific PDE V was obtained from the porcine small intestine, porcine aorta and/or human blood platelets. Purification was carried out by anion exchange chromatography over MonoQ Phaacia essentially by the method of M. Hoey and Miles D. Houslay, Biochemical Pharmacology, Vol. 40, 193-202 (1990).
(§2) The enzyme activity is determined in a test batch of 100 μl in 20 mM Tris/HCl buffer of pH 7.5 which comprises 5 mM MgCl2, 0.1 mg/ml of bovine serum albumin and either 800 Bq of ^3 HcAMP or ^3 HcGMP. The final concentration of the corresponding nucleotides is 10^-6 mol/l. The reaction is started by addition of the enzyme and the amount of enzyme is chosen such that about 50% of the substrate is reacted during the incubation time of 30 minutes. To test the cGMP-stimulatable PDE II, ^3 HcAMP is used as the substrate and 10^-6 mol/l of non-labelled cGMP is added to the batch. To test the Ca-calmodulin-dependent PDE I, 1 μM CaCl2 and 0.1 μM calmodulin are also added to the reaction batch. The reaction is stopped by addition of 100 μl of acetonitrile which comprises 1 mnM cAMP and 1 mM AMP. 100 μl of the reaction batch are separated on the HPLC column and the cleavage products are determined quantitatively "online" with a flow-through scintillation counter. The substance concentration at which the rate of reaction is reduced by 50% is measured.

In another test the test system is cGMP-stimulatable PDE II. Kind of test: Inhibition of the phosphodiesterases in vitro: PDE II. The conditions noted are these: PDE II from porcine or bovine myocardium; 3H-cAMP substrate 10^-6 mol/l with 10^-6 mol/l cGMP; pH 7.5, 30 minutes. The protocol: as §1, §2
The test system of a further test is cGMP-specific PDE V. Kind of test: Inhibition of the phosphodiesterases in vitro: PDE V. The conditions noted are these: PDE V from porcine small intestine, porcine aorta and/or human blood platelets; nucleotide 10^-6 mol/l; pH 7.5, 30 minutes. The procedure: as §1, §2

Turning to `CC(CCCc1ccccc1)n1cnc2c(=O)[nH]c(C3CC3)nc21` (centres unmarked) [Example 14], the IC50 worked out at 4000 nM in test [1], 600 nM with cGMP-stimulatable PDE II and 300 nM in the test with cGMP-specific PDE V.

Consider `CC(CCCc1ccccc1)n1cnc2c(=O)[nH]c(-c3ccc4c(c3)OCO4)nc21` (centres unmarked) [Example 25], for which the IC50 was 3000 nM in test [1], 100 nM with cGMP-stimulatable PDE II and 10000 nM in the test on cGMP-specific PDE V.

For the compound `CC(CCCc1ccccc1)n1cnc2c(=O)[nH]c(-c3ccc(-c4ccccc4)cc3)nc21` (centres unmarked) [Example 20], the IC50 was 1000 nM in test [1], 400 nM in the test on cGMP-stimulatable PDE II and 1000 nM in the test on cGMP-specific PDE V.

Turning to `CC(O)C(CCCc1ccccc1)n1cnc2c(=O)[nH]c(C3CCCCC3)nc21` (centres unmarked) [Example 8, 9-(2-hydroxy-6phenyl-3-hexyl)-2-cyclohexyl-purin-6one], the IC50 in test [1] is 40000 nM; in the test on cGMP-stimulatable PDE II it was 2000 nM.

Take `CCCCCCC(C(C)O)n1cnc2c(=O)[nH]c(-c3ccc(Cl)cc3)nc21` (centres unmarked) [Example 5]: the IC50 in test [1] was found to be 10000 nM; with cGMP-stimulatable PDE II, 3000 nM; in the test on cGMP-specific PDE V, 50000 nM.
